Data on one molecule can be found in publication PMC3923730 (Journal of Translational Medicine, 2014).

This series in a line: Pharmacokinetics in rats (plasma). It counts as in vivo. The following applies: rat plasma. The protocol:
TRO40303 was administered by intravenous (i.v.) bolus to healthy rats at doses of 0.3, 1, 3 and 10 mg/kg in IL30 under isoflurane gas anaesthesia. A maximum of 0.25 mL of blood was collected into lithium heparin tubes at 5, 15 and 30 min, 1 h, 2 h, 4 h, 8 h and 24 h after drug administration (3 rats per time point). The blood samples were cooled on ice and plasma samples were prepared within 60 min of sampling by centrifugation at 1500 g at 4 °C for 10 min and stored at –20°C until analysis. For heart level measurements, TRO40303 was administrated i.v. to rats undergoing the myocardial infarction procedure at the dose of 1 mg/kg in IL30 either 10 min before CAO or 10 min before CAR. Five min after CAR, rats were anesthetised and sacrificed, hearts were isolated and washed with saline. Tissue from AAR was separated from the remainder of the left ventricle; samples were frozen and stored at –20°C until analysis. After TRO40303 plasma concentration analysis, TRO40303 plasma AUC(0-∞) (the area under the curve extrapolated from time zero to time infinity), was calculated using Kinetica™, version 4.4.1 (Thermo Electron Corporation, Philadelphia, PA 19103, USA). The results were analyzed in comparison with previous pharmacokinetic data obtained with TRO40303 formulated in HPBCD at 2.5 mg/kg.
Thawed preclinical samples were extracted with acetonitrile, centrifuged, purified on SPEC C2 cartridge (Varian) for the heart samples and analysed along with calibration standards. Analysis was carried out on an Alliance 2695 (Waters) system interfaced to an API Quattro Micro (Waters) MS detector. Calculations were carried out with Waters QuanLynx software.

Where “and” joins values, the source holds several entries; their conditions need not be identical. Equal values may be shown once.

As to `CC(C)CCC[C@@H](C)[C@H]1CC[C@H]2[C@@H]3CC/C(=N\O)[C@](C)(CCCO)[C@H]3CC[C@]12C` [TRO40303, 3,5-seco-4-nor-cholestan-5-one oxime-3-ol], the “AUC(0-∞)” value is, setting by setting: (3 mg/kg i.v. in IL30, satellite animals) 14000 ng·h/mL; (10 mg/kg i.v. in IL30, satellite animals) 44800 ng·h/mL. The C5min by setting is: (3 mg/kg i.v. in IL30, satellite animals, 3 mg/kg) 57.9 μM and 23.5 μg/mL; (10 mg/kg i.v. in IL30, satellite animals, 10 mg/kg) 130 μM and 52.8 μg/mL.
